Experimental data published in US20090099158A1, “TETRAHYDROISOQUINOLINE COMPOUNDS AS MODULATORS OF THE HISTAMINE H3 RECEPTOR” (priority 2007, published 2009).

Biological target: T1, cloned human H3 receptors (Homo sapiens, UniProt Q9Y5N1)
T1 construct: expressed in transfected cells; host or cells: SK-N-MC cells
Assay: H3 Receptor Binding (Human)
Details: cloned human H3 receptors stably expressed in SK-N-MC cells; average of the results obtained
Method: Binding of compounds to the cloned human H3 receptors, stably expressed in SK-N-MC cells, was performed as described by Barbier, A. J. et al. (Br. J. Pharmacol. 2004, 143(5), 649-661). Data for compounds tested in this assay are presented in Table 1 as an average of the results obtained.

T1 sequence (Q9Y5N1 whole entry): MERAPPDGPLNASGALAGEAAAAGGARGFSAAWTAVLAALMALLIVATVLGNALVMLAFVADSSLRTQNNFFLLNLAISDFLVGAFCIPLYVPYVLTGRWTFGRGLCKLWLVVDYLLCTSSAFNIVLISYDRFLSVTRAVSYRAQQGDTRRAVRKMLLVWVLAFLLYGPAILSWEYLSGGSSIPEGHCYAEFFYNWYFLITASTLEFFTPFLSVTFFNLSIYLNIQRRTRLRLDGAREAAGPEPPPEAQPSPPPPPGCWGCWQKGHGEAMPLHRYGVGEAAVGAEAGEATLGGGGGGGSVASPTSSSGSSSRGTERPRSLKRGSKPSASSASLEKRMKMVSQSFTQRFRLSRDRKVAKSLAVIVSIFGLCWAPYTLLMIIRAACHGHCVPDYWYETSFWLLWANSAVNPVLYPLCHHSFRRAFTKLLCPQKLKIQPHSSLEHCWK

| Structure (SMILES) | Ki [nM] |
| --- | --- |
| CC(C)N1CCCN(C(=O)c2ccc3c(c2)CCN(C(=O)OC(C)(C)C)C3)CC1 [Example 1, 6-(4-Isopropyl-[1,4]diazepane-1-carbonyl)-3,4-dihydro-1H-isoquinoline-2-carboxylic acid tert-butyl ester] | 8 |
| CC(C)(C)OC(=O)N1CCc2cc(C(=O)N3CCN(C4CCCC4)CC3)ccc2C1 [Example 2, 6-(4-Cyclopentyl-piperazine-1-carbonyl)-3,4-dihydro-1H-isoquinoline-2-carboxylic acid tert-butyl ester] | 230 |
| CC(C)(C)OC(=O)N1CCc2cc(C(=O)N3CCN(C4CCCCC4)CC3)ccc2C1 [Example 3, 6-(4-Cyclohexyl-piperazine-1-carbonyl)-3,4-dihydro-1H-isoquinoline-2-carboxylic acid tert-butyl ester] | 165 |
| CC(C)(C)OC(=O)N1CCc2cc(C(=O)N3CCN4CCCCC4C3)ccc2C1 (stereo not shown) [Example 4, 6-(Octahydro-pyrido[1,2-a]pyrazine-2-carbonyl)-3,4-dihydro-1H-isoquinoline-2-carboxylic acid tert-butyl ester] | 28 |
| O=C(c1ccc2c(c1)CCNC2)N1CCCCC1 [Example 6, Piperidin-1-yl-(1,2,3,4-tetrahydro-isoquinolin-6-yl)-methanone] | 3000 |
| O=C(c1ccc2c(c1)CCNC2)N1CCOCC1 [Example 7, Morpholin-4-yl-(1,2,3,4-tetrahydro-isoquinolin-6-yl)-methanone] | 4000 |
| O=C(c1ccc2c(c1)CCNC2)N1CCN(C2CCCC2)CC1 [Example 8, (4-Cyclopentyl-piperazin-1-yl)-(1,2,3,4-tetrahydro-isoquinolin-6-yl)-methanone] | 11 |
| O=C(c1ccc2c(c1)CCNC2)N1CCN(C2CCCCC2)CC1 [Example 9, (4-Cyclohexyl-piperazin-1-yl)-(1,2,3,4-tetrahydro-isoquinolin-6-yl)-methanone] | 14 |
| O=C(c1ccc2c(c1)CCNC2)N1CCN2CCCCC2C1 (stereo not shown) [Example 10, (Octahydro-pyrido[1,2-a]pyrazin-2-yl)-(1,2,3,4-tetrahydro-isoquinolin-6-yl)-methanone] | 16 |
| O=C(c1ccc2c(c1)CCN(Cc1ccccc1)C2)N1CCCCC1 [Example 12, (2-Benzyl-1,2,3,4-tetrahydro-isoquinolin-6-yl)-piperidin-1-yl-methanone] | 7000 |
| O=C(c1ccc2c(c1)CCN(Cc1ccccc1)C2)N1CCOCC1 [Example 13, (2-Benzyl-1,2,3,4-tetrahydro-isoquinolin-6-yl)-morpholin-4-yl-methanone] | > 10000 |

Next, values leading:

| Ki [nM] | Structure (SMILES) |
| --- | --- |
| 20 | O=C(c1ccc2c(c1)CCN(Cc1ccc(C(F)(F)F)cc1)C2)N1CCN(C2CCC2)CC1 [Example 14, (4-Cyclobutyl-piperazin-1-yl)-[2-(4-trifluoromethyl-benzyl)-1,2,3,4-tetrahydro-isoquinolin-6-yl]-methanone] |
| 18 | O=C(c1ccc2c(c1)CCN(Cc1ccc(Cl)c(Cl)c1)C2)N1CCN(C2CCC2)CC1 [Example 16, (4-Cyclobutyl-piperazin-1-yl)-[2-(3,4-dichloro-benzyl)-1,2,3,4-tetrahydro-isoquinolin-6-yl]-methanone] |
| 15 | O=C(c1ccc2c(c1)CCN(Cc1ccc(Cl)cc1)C2)N1CCN(C2CCC2)CC1 [Example 17, [2-(4-Chloro-benzyl)-1,2,3,4-tetrahydro-isoquinolin-6-yl]-(4-cyclobutyl-piperazin-1-yl)-methanone] |
| 29 | CC(C)N1CCN(C(=O)c2ccc3c(c2)CCN(Cc2ccc(Cl)c(Cl)c2)C3)CC1 [Example 19, [2-(3,4-Dichloro-benzyl)-1,2,3,4-tetrahydro-isoquinolin-6-yl]-(4-isopropyl-piperazin-1-yl)-methanone] |
| 19 | CC(C)N1CCN(C(=O)c2ccc3c(c2)CCN(Cc2ccc(C(F)(F)F)cc2)C3)CC1 [Example 20, (4-Isopropyl-piperazin-1-yl)-[2-(4-trifluoromethyl-benzyl)-1,2,3,4-tetrahydro-isoquinolin-6-yl]-methanone] |
